Source: patent US10842793B2, “Inhibitors of the unconventional secretion of fibroblast growth factor 2 (FGF2) by tumor cells and uses thereof” (Universität Heidelberg, priority 2016, dated 2020)

How the values were obtained:
[1] = biological target: T1, Tec kinase mediated tyrosine phosphorylation of FGF2 (GST-NΔ173 Tec) (Homo sapiens, UniProt P42680); experiment: In vitro Tec kinase mediated tyrosine phosphorylation of FGF2; assay type: biochemical; conditions: 50 μM compound in 1% DMSO; FIG. 6C
T1 construct: made in house; host or cells: Tec: SF9 insect cells (baculovirus); FGF2: E. coli
Description: FGF2 tyrosine phosphorylation and Tec kinase auto-phosphorylation were reconstituted with purified components based on a Western analysis using anti-phosphotyrosine antibodies directed against an FGF2-derived phosphopeptide. In vitro phosphorylation experiments were conducted in the absence (1% DMSO mock control) and presence of the small molecule inhibitors (#6, #14, #21; 50 μM in 1% DMSO) and control compounds (#18, #19; 50 μM in 1% DMSO) introduced in FIGS. 4 and 5. Fluorescent secondary antibodies were used to detect antigens employing the LI-COR Odyssey imaging platform. M=PageRuler Prestained Protein Ladder. For details, see Experimental Procedures.
(C) Quantification and statistical analysis of 5 independent experiments using the LI-COR Odyssey imaging platform. Following background normalization, the average of FGF2 tyrosine phosphorylation under mock conditions was defined as 100% activity. Standard deviations are shown. […]
FGF2 and STAP1 tyrosine phosphorylation as well as Tec kinase auto-phosphorylation were analyzed as described in the legend to FIG. 6 and in Experimental Procedures. […] Fluorescent secondary antibodies were used to detect and quantify antigens using the LI-COR Odyssey imaging platform. In panels D, E and F, following normalization based upon background signals detected in the absence of Tec kinase or ATP, the average of the signals detected under mock conditions was defined as 100% activity. […]
(§1) A Tec kinase in vitro phosphorylation assay was established to test the inhibitory potential and selectivity of the small molecule inhibitors reported in this study (FIGS. 6 and 7). […] Phosphorylation levels of GST-NΔ173 Tec (auto-phosphorylation), FGF2 and STAP1 were quantified by a Western analysis using polyclonal anti-phosphotyrosine antibodies raised against a FGF2-derived synthetic peptide containing a phosphorylated tyrosine residue (ANRpYLAMKED; SEQ ID NO: 1). […] Phosphorylation levels of STAP1 were monitored using a monoclonal anti-phosphotyrosine antibody (clone 4G10®, #05-321, Merck Millipore). […]

[2] = biological target: T2, Tec kinase mediated tyrosine phosphorylation of STAP1 (Homo sapiens, UniProt P42680); experiment: In vitro Tec kinase mediated tyrosine phosphorylation of STAP1; assay type: biochemical; conditions: 50 μM compound; FIGS. 7C and F
T2 construct: made in house; host or cells: Tec: SF9 insect cells (baculovirus); STAP1 purchased (Hölzel Diagnostika, Cat. # GWB-P0486E-100)
Description: FGF2 and STAP1 tyrosine phosphorylation as well as Tec kinase auto-phosphorylation were analyzed as described in the legend to FIG. 6 and in Experimental Procedures. In vitro phosphorylation experiments were conducted in the absence (1% DMSO mock control) and presence of the small molecule inhibitors (#6, #14, #21; 50 μM in 1% DMSO) and control compounds (#18, #19; 50 μM in 1% DMSO) introduced in FIGS. 4 and 5. A Western analysis was conducted using anti-phosphotyrosine antibodies (anti-pY-FGF2 for FGF2 and Tec as well as anti-pY-4G10 for STAP1). M=PageRuler Prestained Protein Ladder: 140, 115, 80, 65, 50, 40, 30, 25, 15, 10 kDa. Fluorescent secondary antibodies were used to detect and quantify antigens using the LI-COR Odyssey imaging platform. In panels D, E and F, following normalization based upon background signals detected in the absence of Tec kinase or ATP, the average of the signals detected under mock conditions was defined as 100% activity. Standard deviations are shown. A one-tailed and unpaired T-test was conducted to assess statistical significance (* p<0.05, ** p<0.01, *** p<0.001, **** p<0.0001). “NS” indicates absence of significant differences.
as §1, with “Millipore). Appropriate fluorescent secondary antibodies (goat anti-rabbit IgG conjugated with Alexa Fluor® 680, # A-21076, Life Technologies; goat anti-mouse IgG conjugated with Alexa Fluor® 680, # A-21057, Life Technologies) were used to quantify all antigens employing the LI-COR Odyssey infrared imaging platform.” for “Millipore).”

T2 sequence (P42680 174-631): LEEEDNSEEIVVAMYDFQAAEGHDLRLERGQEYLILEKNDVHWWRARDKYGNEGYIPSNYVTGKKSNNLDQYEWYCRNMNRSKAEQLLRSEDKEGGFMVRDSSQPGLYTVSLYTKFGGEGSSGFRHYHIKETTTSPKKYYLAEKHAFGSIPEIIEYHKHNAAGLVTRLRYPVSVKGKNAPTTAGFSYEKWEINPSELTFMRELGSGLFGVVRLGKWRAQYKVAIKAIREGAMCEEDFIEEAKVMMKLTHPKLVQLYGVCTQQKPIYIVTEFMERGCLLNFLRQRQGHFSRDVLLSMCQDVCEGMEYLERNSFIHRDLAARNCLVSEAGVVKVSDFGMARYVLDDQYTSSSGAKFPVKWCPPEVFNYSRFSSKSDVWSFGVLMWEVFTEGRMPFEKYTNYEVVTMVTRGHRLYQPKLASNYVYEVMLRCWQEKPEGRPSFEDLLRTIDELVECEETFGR
T1 sequence (P42680 174-631, stated change not applied): as the sequence (P42680 174-631) above

SMILES	inhibition at 50 µM [1]	effect on tyrosine phosphorylation of STAP1 [2]	inhibition of FGF2 tyrosine phosphorylation [1]
COC(=O)c1c(C)[nH]c(C(=O)OCc2cc(=O)n3c(C)cccc3n2)c1C [compound #6]	~75%	neither auto-phosphorylation of NΔ173 Tec nor tyrosine phosphorylation of STAP1 is affected	–
CC(=O)c1c(C)[nH]c(C(=O)OCc2cc(=O)n3cc(Br)ccc3n2)c1C [compound #14]	–	neither auto-phosphorylation of NΔ173 Tec nor tyrosine phosphorylation of STAP1 is affected	almost quantitative inhibition
CC(=O)c1c(C)[nH]c(C(=O)CSc2nc3cc(Cl)cnc3[nH]2)c1C [compound #21]	–	neither auto-phosphorylation of NΔ173 Tec nor tyrosine phosphorylation of STAP1 is affected	almost quantitative inhibition
